Assay results reported in PubChem BioAssay AID1963440 (Molecular Pharmacology Branch, DTP, NCI, 2024).

Test system: NCI-H1417 complex spheroids, growth % test/control
Assay: Anticancer human tumor NCI-H1417 cell line growth inhibition [Asc];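 note: spheroids exposed to compounds for 7 days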;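 for viability, T/C: 100% = DMSO vehicle control wells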
Conditions: for IC50: curve of first compound; for viability, T/C: stronger effect = lower value
Method in brief: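 Tumor cells were grown as multicellular spheroids with stromal HUVEC and mesenchymal stem cells and treated singly or in combination. Concentrations fell in half-log steps from the clinical Cmax, or from 10 microM where none was known.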

[1] = second compound 0.1 µM, first compound 0.0316 µM
[2] = second compound 0.1 µM, first compound 0.1 µM
[3] = second compound 0.1 µM, first compound 0.316 µM
[4] = second compound 0.1 µM, first compound 1 µM
[5] = second compound 0.1 µM, first compound 3.16 µM
[6] = second compound 0.1 µM, first compound 10 µM
[7] = second compound 0.316 µM, first compound 0.0316 µM
[8] = second compound 0.316 µM, first compound 0.1 µM
[9] = second compound 0.316 µM, first compound 0.316 µM
[10] = second compound 0.316 µM, first compound 1 µM
[11] = second compound 0.316 µM, first compound 3.16 µM
[12] = second compound 0.316 µM, first compound 10 µM
[13] = second compound 1 µM, first compound 0.0316 µM
[14] = second compound 1 µM, first compound 0.1 µM
[15] = second compound 1 µM, first compound 0.316 µM
[16] = second compound 1 µM, first compound 1 µM
[17] = second compound 1 µM, first compound 3.16 µM
[18] = second compound 1 µM, first compound 10 µM
[19] = second compound 3.16 µM, first compound 0.0316 µM
[20] = second compound 3.16 µM, first compound 0.1 µM
[21] = second compound 3.16 µM, first compound 0.316 µM
[22] = second compound 3.16 µM, first compound 1 µM
[23] = second compound 3.16 µM, first compound 3.16 µM
[24] = second compound 3.16 µM, first compound 10 µM
[25] = second compound 10 µM, first compound 0.0316 µM
[26] = second compound 10 µM, first compound 0.1 µM
[27] = second compound 10 µM, first compound 0.316 µM
[28] = second compound 10 µM, first compound 1 µM
[29] = second compound 10 µM, first compound 3.16 µM
[30] = second compound 10 µM, first compound 10 µM

| IC50 (second compound 0.1 µM) [nM] | IC50 (second compound 0.316 µM) [nM] | IC50 (second compound 1 µM) [nM] | IC50 (second compound 3.16 µM) [nM] | IC50 (second compound 10 µM) [nM] | Compound | viability, T/C [1] [%] | viability, T/C [2] [%] | viability, T/C [3] [%] | viability, T/C [4] [%] | viability, T/C [5] [%] | viability, T/C [6] [%] | viability, T/C [7] [%] | viability, T/C [8] [%] | viability, T/C [9] [%] | viability, T/C [10] [%] | viability, T/C [11] [%] | viability, T/C [12] [%] | viability, T/C [13] [%] | viability, T/C [14] [%] | viability, T/C [15] [%] | other results |
| --- | --- | --- | --- | --- | --- | --- | --- | --- | --- | --- | --- | --- | --- | --- | --- | --- | --- | --- | --- | --- | --- |
| 1240 | < 31.6 | < 31.6 | < 31.6 | < 31.6 | C=C(F)C(=O)N1CCN(c2nc(OCC3CCCN3C)nc3c2CCN(c2cccc4cccc(Cl)c24)C3)CC1CC#N (stereo not given) + Cc1c(S(C)(=O)=O)c(-c2cc(F)cc(N3CCN(c4ccc(NS(=O)(=O)c5ccc(NC(CCN6CCC(C(=O)OCCCP(=O)(O)O)CC6)CSc6ccccc6)c(S(=O)(=O)C(F)(F)F)c5)cc4)CC3)c2)c(-c2ccc(Cl)cc2)n1C(C)C | 75.7 | 80 | 67.9 | 61.1 | 1.57 | 0.85 | 43.5 | 46 | 35.5 | 14 | 0.94 | 0.12 | 12.3 | 9.05 | 5.54 | viability, T/C [16]: 2.95%; viability, T/C [17]: 0.15%; viability, T/C [18]: 0.11%; viability, T/C [19]: 2.93%; viability, T/C [20]: 2.78%; viability, T/C [21]: 2.82%; viability, T/C [22]: 2.57%; viability, T/C [23]: 0.11%; viability, T/C [24]: 0.12%; viability, T/C [25]: 2.01%; viability, T/C [26]: 2.86%; viability, T/C [27]: 3.34%; viability, T/C [28]: 1.29%; viability, T/C [29]: 0.21%; viability, T/C [30]: 0.19% |
| > 10000 | 3960 | < 31.6 | < 31.6 | < 31.6 | C=CC(=O)N1CCN(c2nc(=O)n(-c3c(C)ccnc3C(C)C)c3nc(-c4c(O)cccc4F)c(F)cc23)C(C)C1 (stereo not given) + Cc1c(S(C)(=O)=O)c(-c2cc(F)cc(N3CCN(c4ccc(NS(=O)(=O)c5ccc(NC(CCN6CCC(C(=O)OCCCP(=O)(O)O)CC6)CSc6ccccc6)c(S(=O)(=O)C(F)(F)F)c5)cc4)CC3)c2)c(-c2ccc(Cl)cc2)n1C(C)C | 79.9 | 97.7 | 94 | 88.7 | 79.5 | 76.5 | 50.7 | 52.8 | 59.2 | 55.8 | 60.4 | 26.5 | 12.8 | 19 | 19.2 | viability, T/C [16]: 27.2%; viability, T/C [17]: 15.7%; viability, T/C [18]: 6.31%; viability, T/C [19]: 3.89%; viability, T/C [20]: 4.22%; viability, T/C [21]: 4.64%; viability, T/C [22]: 3.72%; viability, T/C [23]: 3.98%; viability, T/C [24]: 3.94%; viability, T/C [25]: 2.86%; viability, T/C [26]: 2.89%; viability, T/C [27]: 3.43%; viability, T/C [28]: 2.4%; viability, T/C [29]: 3.1%; viability, T/C [30]: 3.85% |
